Data from ChEMBL document CHEMBL5465560, “Selectivity Literature for EUbOPEN Chemogenomic Library” (2024).

Tests used:
[1] = molecular target: Macrophage-stimulating protein receptor (Homo sapiens, UniProt Q04912); experiment: Selectivity interaction (Upstate Kinase Profiler service (Millipore)) EUB0000056c MST1R; conditions: at 1 µM
SRSF protein kinase 1 = SRSF protein kinase 1 (Homo sapiens, UniProt Q96SB4); experiment: Selectivity interaction (KinomeScan (DiscoverX)) EUB0000695a SRPK1; conditions: at 100 nM
[2] = molecular target: T1, Mitogen-activated protein kinase kinase kinase 2 (Homo sapiens) (UniProt Q9Y2U5); experiment: Selectivity interaction (KinomeScan (DiscoverX)) EUB0001049a MAP3K2; conditions: at 1 µM
T1 sequence (whole entry): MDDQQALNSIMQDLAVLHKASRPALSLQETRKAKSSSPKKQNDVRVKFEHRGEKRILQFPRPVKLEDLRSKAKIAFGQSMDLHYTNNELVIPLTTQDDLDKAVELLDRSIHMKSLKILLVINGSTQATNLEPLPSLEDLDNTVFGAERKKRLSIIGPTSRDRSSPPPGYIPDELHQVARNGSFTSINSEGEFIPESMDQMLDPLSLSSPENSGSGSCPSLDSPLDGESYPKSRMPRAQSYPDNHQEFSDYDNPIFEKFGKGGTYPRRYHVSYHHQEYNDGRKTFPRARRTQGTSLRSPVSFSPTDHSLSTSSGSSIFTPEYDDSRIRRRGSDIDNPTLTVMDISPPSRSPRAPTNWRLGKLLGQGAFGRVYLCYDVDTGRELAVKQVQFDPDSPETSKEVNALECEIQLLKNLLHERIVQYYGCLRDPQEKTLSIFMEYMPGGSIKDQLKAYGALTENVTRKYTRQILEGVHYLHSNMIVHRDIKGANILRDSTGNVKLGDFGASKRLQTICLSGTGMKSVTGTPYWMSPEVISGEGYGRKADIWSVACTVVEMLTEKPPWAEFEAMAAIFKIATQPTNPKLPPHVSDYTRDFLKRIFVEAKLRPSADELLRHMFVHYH

[3] = molecular target: Calcium/calmodulin-dependent protein kinase type 1 (Homo sapiens) (UniProt Q14012); experiment: Selectivity interaction (KinomeScan (DiscoverX)) EUB0000655a CAMK1; conditions: at 10 µM
[4] = molecular target: Non-receptor tyrosine-protein kinase TYK2 (Homo sapiens, UniProt P29597); experiment: Selectivity interaction (KinomeScan (DiscoverX)) EUB0000045b TYK2
[5] = molecular target: Serine/threonine-protein kinase tousled-like 2 (Homo sapiens) (UniProt Q86UE8); experiment: Selectivity interaction (Kinase panel (KiNativ target engagement assay in Jurkat cells)) EUB0001635a TLK2; format: cell-based; conditions: at 1 µM
[6] = molecular target: T2, Ephrin type-B receptor 6 (Homo sapiens) (UniProt O15197); experiment: Selectivity interaction (KinomeScan (DiscoverX)) EUB0000229b EPHB6; conditions: at 10 µM
T2 sequence (whole entry): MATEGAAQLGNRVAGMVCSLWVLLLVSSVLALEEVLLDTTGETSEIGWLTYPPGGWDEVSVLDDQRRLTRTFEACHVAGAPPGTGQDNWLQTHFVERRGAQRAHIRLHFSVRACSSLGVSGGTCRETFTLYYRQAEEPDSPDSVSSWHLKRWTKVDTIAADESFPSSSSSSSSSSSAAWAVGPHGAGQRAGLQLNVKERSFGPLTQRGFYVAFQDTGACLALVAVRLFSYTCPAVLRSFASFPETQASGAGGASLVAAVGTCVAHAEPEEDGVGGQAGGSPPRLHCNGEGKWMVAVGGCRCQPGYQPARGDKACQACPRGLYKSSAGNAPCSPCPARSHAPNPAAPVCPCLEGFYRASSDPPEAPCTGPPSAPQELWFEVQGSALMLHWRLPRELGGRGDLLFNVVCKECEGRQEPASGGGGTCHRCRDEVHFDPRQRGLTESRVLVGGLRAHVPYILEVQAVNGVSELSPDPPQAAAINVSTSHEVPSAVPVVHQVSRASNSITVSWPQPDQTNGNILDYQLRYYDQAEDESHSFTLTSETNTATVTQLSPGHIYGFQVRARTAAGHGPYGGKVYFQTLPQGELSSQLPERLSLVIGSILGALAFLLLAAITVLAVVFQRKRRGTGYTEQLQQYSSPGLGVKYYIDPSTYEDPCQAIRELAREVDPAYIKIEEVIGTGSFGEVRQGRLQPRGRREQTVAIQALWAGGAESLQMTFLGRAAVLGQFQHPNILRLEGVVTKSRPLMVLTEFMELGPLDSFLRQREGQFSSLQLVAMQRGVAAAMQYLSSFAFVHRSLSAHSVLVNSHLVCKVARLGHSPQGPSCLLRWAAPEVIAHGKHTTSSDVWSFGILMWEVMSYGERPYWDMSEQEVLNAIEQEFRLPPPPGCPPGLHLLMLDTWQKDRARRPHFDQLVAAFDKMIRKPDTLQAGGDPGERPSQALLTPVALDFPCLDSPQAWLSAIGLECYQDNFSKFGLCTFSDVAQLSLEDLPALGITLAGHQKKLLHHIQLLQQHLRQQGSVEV

[7] = molecular target: Mitogen-activated protein kinase kinase kinase kinase 5 (Homo sapiens) (UniProt Q9Y4K4); experiment: Selectivity interaction (KinomeScan (DiscoverX)) EUB0000229b MAP4K5; conditions: at 10 µM
[8] = molecular target: Ephrin type-A receptor 2 (Homo sapiens) (UniProt P29317); experiment: Selectivity interaction (KinomeScan (DiscoverX)) EUB0000618a EPHA2; conditions: at 10 µM
Chain of Ephrin type-A receptor 2 (Homo sapiens) (P29317 whole entry): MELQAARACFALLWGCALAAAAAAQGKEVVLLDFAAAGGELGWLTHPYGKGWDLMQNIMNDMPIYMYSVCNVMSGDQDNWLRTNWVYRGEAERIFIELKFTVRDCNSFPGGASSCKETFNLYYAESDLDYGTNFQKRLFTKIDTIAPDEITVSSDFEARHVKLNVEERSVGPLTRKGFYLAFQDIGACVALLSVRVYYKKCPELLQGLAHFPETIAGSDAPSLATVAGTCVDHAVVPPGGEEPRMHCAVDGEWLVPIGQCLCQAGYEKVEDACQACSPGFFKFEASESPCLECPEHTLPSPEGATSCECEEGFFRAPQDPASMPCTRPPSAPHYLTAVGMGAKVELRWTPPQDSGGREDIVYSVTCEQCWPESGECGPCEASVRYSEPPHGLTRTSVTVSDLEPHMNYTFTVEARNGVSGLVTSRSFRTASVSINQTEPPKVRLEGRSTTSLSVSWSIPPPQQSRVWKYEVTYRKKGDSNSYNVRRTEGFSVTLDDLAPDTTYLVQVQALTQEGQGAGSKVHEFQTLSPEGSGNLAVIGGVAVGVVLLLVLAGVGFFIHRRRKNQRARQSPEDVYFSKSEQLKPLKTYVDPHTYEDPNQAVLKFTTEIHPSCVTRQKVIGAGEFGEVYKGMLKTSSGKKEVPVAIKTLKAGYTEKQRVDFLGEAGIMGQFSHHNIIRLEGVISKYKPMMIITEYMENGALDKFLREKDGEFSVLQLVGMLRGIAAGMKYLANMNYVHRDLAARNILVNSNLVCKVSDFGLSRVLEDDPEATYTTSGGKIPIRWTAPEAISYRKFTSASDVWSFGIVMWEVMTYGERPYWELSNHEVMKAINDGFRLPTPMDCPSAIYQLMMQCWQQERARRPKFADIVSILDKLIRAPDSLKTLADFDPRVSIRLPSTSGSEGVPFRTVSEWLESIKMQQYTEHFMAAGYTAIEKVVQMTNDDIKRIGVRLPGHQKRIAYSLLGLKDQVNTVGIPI

Chain of Non-receptor tyrosine-protein kinase TYK2 (P29597 whole entry): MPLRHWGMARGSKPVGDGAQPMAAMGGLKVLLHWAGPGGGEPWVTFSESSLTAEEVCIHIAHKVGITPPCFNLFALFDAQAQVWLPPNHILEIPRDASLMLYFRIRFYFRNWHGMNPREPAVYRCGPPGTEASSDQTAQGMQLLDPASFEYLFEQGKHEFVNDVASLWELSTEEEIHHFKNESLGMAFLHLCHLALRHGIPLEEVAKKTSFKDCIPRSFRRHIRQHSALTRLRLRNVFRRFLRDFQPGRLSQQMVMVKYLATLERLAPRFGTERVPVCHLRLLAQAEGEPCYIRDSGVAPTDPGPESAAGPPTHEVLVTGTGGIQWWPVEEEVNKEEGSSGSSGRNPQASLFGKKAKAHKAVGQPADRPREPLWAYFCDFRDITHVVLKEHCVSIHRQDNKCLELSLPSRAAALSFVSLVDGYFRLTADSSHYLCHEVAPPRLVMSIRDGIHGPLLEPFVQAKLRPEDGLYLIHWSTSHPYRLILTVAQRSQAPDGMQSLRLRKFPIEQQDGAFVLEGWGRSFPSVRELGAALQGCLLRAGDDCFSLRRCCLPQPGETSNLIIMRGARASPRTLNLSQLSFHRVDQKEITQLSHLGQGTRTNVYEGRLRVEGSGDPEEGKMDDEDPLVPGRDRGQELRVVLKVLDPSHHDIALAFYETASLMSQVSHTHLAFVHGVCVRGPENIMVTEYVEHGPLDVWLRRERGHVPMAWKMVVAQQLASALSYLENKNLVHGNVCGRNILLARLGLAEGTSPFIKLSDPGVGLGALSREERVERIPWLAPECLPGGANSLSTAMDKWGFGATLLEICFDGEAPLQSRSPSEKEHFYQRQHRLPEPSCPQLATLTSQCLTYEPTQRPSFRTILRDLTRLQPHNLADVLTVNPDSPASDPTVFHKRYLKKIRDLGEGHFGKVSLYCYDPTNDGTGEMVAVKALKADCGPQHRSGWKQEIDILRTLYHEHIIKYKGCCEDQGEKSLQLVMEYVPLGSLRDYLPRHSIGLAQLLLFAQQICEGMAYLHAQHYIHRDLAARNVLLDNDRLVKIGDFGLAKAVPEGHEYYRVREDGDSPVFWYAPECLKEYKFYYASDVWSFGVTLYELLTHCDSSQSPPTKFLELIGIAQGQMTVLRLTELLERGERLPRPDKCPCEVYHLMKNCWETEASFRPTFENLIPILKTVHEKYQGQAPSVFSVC
Chain of Serine/threonine-protein kinase tousled-like 2 (Homo sapiens) (Q86UE8 whole entry, looked up): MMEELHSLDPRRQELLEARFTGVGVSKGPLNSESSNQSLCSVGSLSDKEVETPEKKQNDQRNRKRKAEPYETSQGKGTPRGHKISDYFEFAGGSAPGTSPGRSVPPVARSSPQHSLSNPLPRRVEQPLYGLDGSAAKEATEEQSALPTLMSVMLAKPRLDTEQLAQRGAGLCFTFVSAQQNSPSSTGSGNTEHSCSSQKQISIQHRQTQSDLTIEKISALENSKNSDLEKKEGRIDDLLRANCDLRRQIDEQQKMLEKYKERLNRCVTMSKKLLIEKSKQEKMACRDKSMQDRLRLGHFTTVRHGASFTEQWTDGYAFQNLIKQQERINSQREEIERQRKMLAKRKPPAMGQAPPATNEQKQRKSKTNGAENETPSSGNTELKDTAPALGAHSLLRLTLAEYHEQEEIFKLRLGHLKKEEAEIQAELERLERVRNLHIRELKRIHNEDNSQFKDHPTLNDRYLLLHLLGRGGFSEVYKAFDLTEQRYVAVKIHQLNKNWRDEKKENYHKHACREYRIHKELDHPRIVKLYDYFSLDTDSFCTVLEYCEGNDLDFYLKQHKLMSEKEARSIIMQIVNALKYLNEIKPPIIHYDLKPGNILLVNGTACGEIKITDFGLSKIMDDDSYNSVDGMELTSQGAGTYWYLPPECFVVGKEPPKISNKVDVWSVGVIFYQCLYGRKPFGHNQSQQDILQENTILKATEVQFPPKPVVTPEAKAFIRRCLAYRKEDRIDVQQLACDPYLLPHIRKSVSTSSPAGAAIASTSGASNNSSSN
Chain of Macrophage-stimulating protein receptor (Q04912 25-304 limits assumed): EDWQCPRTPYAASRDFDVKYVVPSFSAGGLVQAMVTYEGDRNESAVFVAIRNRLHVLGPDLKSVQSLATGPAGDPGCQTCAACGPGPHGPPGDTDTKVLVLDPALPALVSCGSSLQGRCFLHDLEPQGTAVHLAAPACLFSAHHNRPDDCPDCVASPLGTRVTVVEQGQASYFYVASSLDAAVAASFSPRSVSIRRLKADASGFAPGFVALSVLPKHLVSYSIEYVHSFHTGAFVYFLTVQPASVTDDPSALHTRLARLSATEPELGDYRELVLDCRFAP
Chain of Macrophage-stimulating protein receptor (Q04912 310-1400 limits assumed): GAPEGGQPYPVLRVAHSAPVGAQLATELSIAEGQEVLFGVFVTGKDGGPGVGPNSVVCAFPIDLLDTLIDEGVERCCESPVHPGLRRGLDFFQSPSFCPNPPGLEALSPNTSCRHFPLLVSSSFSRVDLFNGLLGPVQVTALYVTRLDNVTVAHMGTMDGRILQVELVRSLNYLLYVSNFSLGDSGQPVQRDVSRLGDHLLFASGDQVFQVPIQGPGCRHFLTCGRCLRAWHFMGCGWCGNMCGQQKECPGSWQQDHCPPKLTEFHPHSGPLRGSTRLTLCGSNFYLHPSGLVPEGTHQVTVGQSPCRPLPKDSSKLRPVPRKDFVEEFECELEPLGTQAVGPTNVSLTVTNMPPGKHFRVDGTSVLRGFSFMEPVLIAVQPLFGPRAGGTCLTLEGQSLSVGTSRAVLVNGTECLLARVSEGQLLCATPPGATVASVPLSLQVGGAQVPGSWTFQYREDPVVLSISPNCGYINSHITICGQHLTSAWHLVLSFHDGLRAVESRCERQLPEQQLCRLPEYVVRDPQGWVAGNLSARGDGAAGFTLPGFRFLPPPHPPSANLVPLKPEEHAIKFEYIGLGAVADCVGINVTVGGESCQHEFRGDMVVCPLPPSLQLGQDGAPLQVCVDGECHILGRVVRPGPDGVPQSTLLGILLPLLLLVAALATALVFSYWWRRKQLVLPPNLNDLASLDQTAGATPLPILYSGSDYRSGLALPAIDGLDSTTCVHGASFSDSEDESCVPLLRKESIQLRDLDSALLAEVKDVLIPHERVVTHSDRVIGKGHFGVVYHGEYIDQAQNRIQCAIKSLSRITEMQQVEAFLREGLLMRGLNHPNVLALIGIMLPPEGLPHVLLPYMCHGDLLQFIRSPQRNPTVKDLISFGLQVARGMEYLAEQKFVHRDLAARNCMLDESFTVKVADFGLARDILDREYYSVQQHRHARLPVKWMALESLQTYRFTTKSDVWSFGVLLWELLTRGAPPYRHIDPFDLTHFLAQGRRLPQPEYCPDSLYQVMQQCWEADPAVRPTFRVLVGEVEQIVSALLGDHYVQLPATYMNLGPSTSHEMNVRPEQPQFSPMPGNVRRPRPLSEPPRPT
Chain of SRSF protein kinase 1 (Q96SB4 whole entry): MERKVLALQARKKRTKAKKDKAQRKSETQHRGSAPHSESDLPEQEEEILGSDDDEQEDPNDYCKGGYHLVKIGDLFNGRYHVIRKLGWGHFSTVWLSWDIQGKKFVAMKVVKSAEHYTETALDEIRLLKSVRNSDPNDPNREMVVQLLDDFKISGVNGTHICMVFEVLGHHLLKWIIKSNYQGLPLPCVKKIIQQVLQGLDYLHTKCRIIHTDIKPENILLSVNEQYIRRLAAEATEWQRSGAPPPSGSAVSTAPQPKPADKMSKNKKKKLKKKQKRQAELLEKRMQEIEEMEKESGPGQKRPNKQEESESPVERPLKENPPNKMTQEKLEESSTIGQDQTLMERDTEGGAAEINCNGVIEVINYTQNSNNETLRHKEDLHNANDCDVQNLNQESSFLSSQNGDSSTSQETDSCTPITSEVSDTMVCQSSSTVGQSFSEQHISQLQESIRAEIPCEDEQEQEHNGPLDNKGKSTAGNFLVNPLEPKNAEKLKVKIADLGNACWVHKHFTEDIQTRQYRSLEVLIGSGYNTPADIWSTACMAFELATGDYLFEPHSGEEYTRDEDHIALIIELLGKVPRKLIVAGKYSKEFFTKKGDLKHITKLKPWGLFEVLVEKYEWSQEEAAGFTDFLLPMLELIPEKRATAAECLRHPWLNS

`Cc1ccc(-c2ccc3c(ccc4sc5c(c43)NC[C@@H](C)NC5=O)n2)cn1` was tested, and the % of inhibition [1] was 20%.

`Cc1cc(F)c(C(=O)Nc2cccc(-c3nncn3C(C)C)n2)cc1-n1cnc(C2CC2)c1` gave a % of control (SRSF protein kinase 1) of 91%.

For `COc1cc(Nc2nc(C)cc(-c3cnn4nc(OC)ccc34)n2)cc(C(F)(F)F)c1`, the % of control [2] was 87%.

`CN(C)CCOc1ccc(-c2nc(-c3ccncc3)c(-c3ccc4c(c3)CC/C4=N\O)[nH]2)cc1` showed a % of control [3] of 93%.

`C=CC(=O)Nc1cc(-n2c(=O)ccc3cnc4ccc(-c5ccc(NS(C)(=O)=O)cc5)cc4c32)ccc1C` showed a % of control ([4]; at 1 µM) of 100% and a % of control ([4]; at 10 µM) of 100%.

Work on `C=CC(=O)Nc1ccc(C(=O)Nc2[nH]nc3c2CN(C(=O)N[C@H](CN(C)C)c2ccccc2)C3(C)C)cc1` yielded a % of engagement ([5]; Selectivity number of off-targets 0.0, Selectivity number of targets 233.0, Source Knowledge https://www.sciencedirect.com/science/article/pii/S2451945619300674?via%3Dihub) of 6.8% and a % of engagement [5] of 13.7%.

Work on `COc1cc(N(C)c2ccnc3ccc(C(F)(F)F)cc23)cc(OC)c1OC` yielded a % binding [6] of 81% and a % binding [7] of 97%.

Work on `O[C@H]1CC[C@H](Nc2ncc3nc(Nc4c(F)cc(F)cc4F)n([C@H]4CCOC4)c3n2)CC1` yielded a % of control [8] of 99%.
